The data set can be described thus: Human HepG2 cell viability assay in 384 well format. The format is toxicity, cell-based. Further details: dose 125 nL, time 70.5 hour; concentration not given beside the values. As to conditions: HepG2 cells, read-out: Inhibition.
Turning to `O=C(Nc1ccc(Cl)cc1C(=O)NCCN1CCOCC1)c1ccco1`, the cytotoxicity at 70.5 h is -0.882%.
Then `Cn1c(C(=O)NC2CCCC2)nc2c1CCN(Cc1ccccc1)C2`, with -5.5%; and `CC(C)CN(Cc1cnn(C)c1)C(=O)C1COc2ccccc2C1` (centres undefined), with 1.15%.
Then `CCOc1ccccc1CCNC(=O)NCC(O)c1ccsc1` (centres undefined), with -0.583%; and `CN(C)c1cccc(C(=O)N2C[C@H]3CC[C@@H]2CN(C(=O)C2CCC2)C3)c1`, with 0.254%; and `CCCN(C1CCc2ccccc2C1)S(C)(=O)=O` (centres undefined), with -2.87%.
The value for `Cc1noc(CN2CC=C(c3c[nH]c4ncccc34)CC2)n1` was 20.4%; that for `Cc1ccccc1-c1noc(CN2CCC(c3ccn[nH]3)CC2)n1` was 30.9%.
Turning to `CN1CCN(c2cc(CNC(=O)c3ccsc3)ccn2)CC1`, the cytotoxicity at 70.5 h was determined as 1%.
Regarding `Cc1ccc(CN(C)C)cc1NC(=O)C1CC1`, the cytotoxicity at 70.5 h is -9.96%.
Then `CC(=O)N[C@@H]1CN(C(=O)c2ccncc2)C[C@H]1c1ccc(C)cc1`, with -3.8%.
The value for `O=C(CCN1CCC(C(=O)c2cc(F)ccc2F)CC1)NC1CC1` was -0.804%; that for `CCS(=O)(=O)N1CCc2onc(COc3ccccn3)c2C1` was -3.32%.
The value for `O=C(COc1ccc(-n2cccn2)nn1)NC1CCCCC1` was 0.192%.
Regarding `CCCc1nnc(C(=O)N(C)Cc2cnc3ccccn23)o1`, the cytotoxicity at 70.5 h was 33.7%.
As for `O=C(c1cc(Cl)c2c(c1)OCO2)N1CCCC(n2ccnc2)C1` (centres undefined), the cytotoxicity at 70.5 h was -8.93%.
For `CO[C@H]1CN(C(=O)c2cccnc2)[C@@H]2CCCO[C@H]12`, the cytotoxicity at 70.5 h was -11.9%.
As for `CCn1cc(Cl)c(C(=O)NCCCN(C)C)n1`, the cytotoxicity at 70.5 h was -7.78%.
Consider `CC(=O)c1cc(CC(=O)NCc2ccc(F)cc2)cs1`, for which the cytotoxicity at 70.5 h is -1.82%.
For `Cn1cc(-c2nc(CN3CCc4c(ncn4C)C3)cs2)cn1`, the cytotoxicity at 70.5 h is 31%.
Then `Fc1ccc(COCC2CCN(Cc3ccccn3)CC2)cc1`, with -4.18%.
The value for `Cn1c(CN2CCCC(Cn3cc(CCO)nn3)C2)cc2ccccc21` (centres undefined) was -0.291%; that for `Cc1cnn(CC2CCCN2Cc2cc(=O)n3c(C)csc3n2)c1` (centres undefined) was -4.63%.
Then `c1csc(CN2CCc3ncnc(C4CCOC4)c3CC2)n1` (centres undefined), with -4.88%; and `Cc1ccc(OCCCNC(=O)C(C)Sc2nncn2C)cc1` (centres undefined), with -12.1%.
On to `COC(=O)CC(C1=Cc2ccccc2OC1)c1oc(C)cc(=O)c1O` (centres undefined), for which the cytotoxicity at 70.5 h came out at 19.3%.
Take `O=C(NCCN1CCOCC1)NCc1ccccc1-n1cccn1`: the cytotoxicity at 70.5 h was -0.678%.
The value for `Cc1ncsc1C(=O)NCCSCc1cccs1` was -1.32%; that for `O=C(Nc1ccc(CCN2CCSCC2)cc1)NC1CC1` was -11.9%; that for `Cc1cnn(CCNCC(=O)NCC2(c3ccccc3)CCC2)c1` was 22.8%.
Take `C[C@@H]1CN(CCOCc2ccccc2)CC[C@@]1(O)C1CCC1`: the cytotoxicity at 70.5 h was 37.7%.
`COc1c(CNCc2ccc(C(=O)N(C)C)cc2)c(C)nn1C`: the cytotoxicity at 70.5 h stood at 0.637%.
For `O=C(c1ccncc1)N1CCc2c(COCC3CC3)cncc2C1`, the cytotoxicity at 70.5 h was 0.493%.
The value for `O=C(CCNc1ncccn1)NCc1cccc(OC(F)F)c1` was -11.7%; that for `Cn1cccc1C(O)CNC(=O)c1cccc(Cl)c1` (centres undefined) was -9.53%.
For `Fc1ccc(CCN2CCC(c3nnc(-c4cccnc4)o3)CC2)cc1`, the cytotoxicity at 70.5 h was found to be 16.7%.
Then `COCCCN1Cc2cccc(NC(=O)C(C)(C)C)c2C1`, with 31.1%.
Then `CCC(=O)N1CC[C@@H]2[C@H](CC1)N(Cc1cccc(C)n1)CCS2(=O)=O`, with 1.51%; and `c1ccc(Cn2cc3c(n2)C(CNCC2CCOCC2)OCC3)nc1` (centres undefined), with -1.54%.
The value for `CN(CC1CC1)C(=O)Cc1csc(-c2ncccn2)n1` was 0.625%; that for `Cc1noc(C2CCN(C(=O)CCNS(C)(=O)=O)CC2)n1` was -17.2%; that for `CC(=O)NCC(=O)N1CCC2(CC1)CN(c1cccnc1)C(=O)CO2` was -13.6%.
`Cc1ncc(CC(=O)N2CCC3(CCC(=O)N(CCO)C3)CC2)c(=O)[nH]1`: the cytotoxicity at 70.5 h was -13.5%.
Consider `CC(C)Cc1cc(NC(=O)c2ccc(=O)[nH]n2)n(C)n1`, for which the cytotoxicity at 70.5 h was -2.14%.
Then `Cc1ccc(N2CC[C@@H]3[C@@H]2CCN3Cc2ccsc2)nn1`, with -0.146%; and `CCCN(CCc1ccccn1)C(=O)Cn1cc(C)cn1`, with -4.61%.
As for `COc1c(CNC2CCc3cc(Cl)ccc32)c(C)nn1C` (centres undefined), the cytotoxicity at 70.5 h is -3.82%.
For `O=C(C[C@@H]1COC[C@H]2CN(Cc3ccncc3)C[C@@H]12)N1CCOCC1`, the cytotoxicity at 70.5 h was -13.2%.
The value for `O=C(c1cscn1)N1CCC2(CN(Cc3ccsc3)C2)C1` was 31.3%; that for `CCCN1CCCC1c1ccc(C(=O)N2CCOCC2)s1` (centres undefined) was 0.549%.
The value for `CS(=O)(=O)CC1CCCN(c2ncnc3c2Cc2ccccc2OC3)C1` (centres undefined) was -9.52%.
Then `CCCc1nc(C)c(C(=O)NCCn2nc3ccccn3c2=O)s1`, with 19.2%.
`O=C(c1ccncn1)N1C[C@@H]2CN(Cc3cccnc3)CCO[C@@H]2C1`: the cytotoxicity at 70.5 h is -12.7%.
The value for `COc1cc2nc(C)sc2cc1NC(=O)CN(C)C(C)C` was 4.08%.
Take `O=C(CCCN1CCCCC1)NC(C(=O)O)c1ccc(Cl)cc1` (centres undefined): the cytotoxicity at 70.5 h is -5.87%.
The value for `CCOc1cc(C(=O)N2CCCC(c3noc(C(C)C)n3)C2)ccn1` (centres undefined) was -3.39%; that for `Cc1csc2ncc(-c3ccnc(N4CCC[C@@H]4CO)n3)c(=O)n12` was -2.68%.
Regarding `CCCn1[nH]c(CNc2ccccc2)nc1=O`, the cytotoxicity at 70.5 h was -2.36%.
The value for `COC(=O)C(NC(=O)C1CCC1)c1cc(F)ccc1F` (centres undefined) was -7.83%; that for `CN1CCC(N2CCOC3(CCCC3)C2)C1=O` (centres undefined) was 5.41%.
The value for `CC(C)Cn1ncc2cc(C(=O)N(C)Cc3cccc(O)c3)cnc21` was 11.7%; that for `Cc1cc(N[C@H]2CCCN(Cc3ccccc3)C2)n2nc(C)cc2n1` was 1.66%; that for `O=C1CN(c2ccc(C(=O)N3CCc4ccccc43)cn2)CCN1` was -6.79%.
For the molecule `CCC[C@@H]1CN(C(=O)c2cnc3ccccc3c2)C[C@H]1NS(C)(=O)=O`, the cytotoxicity at 70.5 h is -1.26%.
The value for `CC1(C)CN(C(=O)c2cc(F)cc3[nH]cnc23)CCS1` was -11%; that for `CC(CNCc1ccncc1)Oc1ccccn1` (centres undefined) was -12.5%.
In the case of `NC(=O)CN(C(=O)c1cccc(C(F)(F)F)c1)C1CCCC1`, the cytotoxicity at 70.5 h is -6%.
Then `O=C(c1cccs1)N1CCC2(C1)c1ccccc1S(=O)(=O)N2CC1CC1` (centres undefined), with -3.76%.
The value for `O=C(O)c1cc(C2CC2)nc2c(Cl)cnn12` was -7.04%.
Turning to `CC(C)NC(=O)N1CC[C@H]2N(C)CC[C@@]2(C(=O)Nc2cccnc2)CC1`, the cytotoxicity at 70.5 h was -10.8%.
`CN1CC2(CCN(C(=O)c3ccc4nonc4c3)CC2)CC1=O`: the cytotoxicity at 70.5 h was -11.3%.
Consider `O=C(CCN1CCCCO1)N1CC[C@H](O)[C@@H](O)C1`, for which the cytotoxicity at 70.5 h was 11.6%.
In the case of `COc1ccc(Cl)cc1NCC(=O)NCCNc1cnccn1`, the cytotoxicity at 70.5 h was -10.9%.
The value for `c1coc(CNc2ncc3c(n2)C2(CCNC2)COC3)c1` (centres undefined) was -4.32%; that for `CC(C)c1cc(=O)[nH]c(-c2ccccc2CN2CCCCCC2)n1` was -13.2%; that for `Cc1ccc(C(C(=O)NC(C)(C)CN2CCCC2)N(C)C)cc1` (centres undefined) was 45%.
The value for `CC1(C)OC(=O)N(CCCOc2ccc(F)cc2)C1=O` was -11.6%.
Then `COc1coc(CN2CCCC3(CCC(=O)N(CC4CC4)C3)C2)cc1=O` (centres undefined), with -8.43%; and `CCn1ccnc1CNc1nccc(-c2cn(C)nc2C)n1`, with -2.79%.
`COc1cccc(-c2n[nH]cc2C(=O)NC(C)c2nc(C(C)C)no2)c1` (centres undefined): the cytotoxicity at 70.5 h is -8.56%.
Then `COc1ccc(CN2CCN(C(C)c3nc(C4CC4)no3)CC2)cc1` (centres undefined), with -6.65%.
In the case of `CC1c2ncc(COCC3CCCC3)n2CCN1S(=O)(=O)N(C)C` (centres undefined), the cytotoxicity at 70.5 h was found to be 0.773%.
The value for `CN(C)CC1COCCN1C(=O)c1ccccc1C(=O)c1ccccc1` (centres undefined) was -7.66%; that for `O=C(c1ccc2c(c1)CCC2)N1CCCCC1C1OCCO1` (centres undefined) was -7.93%; that for `CN(C(=O)c1ccn(C)n1)[C@@H]1CCC[C@@H](Oc2ccccc2)[C@@H]1O` was -4.51%.
Then `Cc1noc(C(C)C)c1C(=O)NCc1cc(F)cc(F)c1`, with -4.07%.
Then `Cc1cnn(CCC(=O)N2CCCN(c3cccnn3)CC2)c1`, with -2.44%.
Turning to `COc1ccc(CC(C)(O)CNC(=O)Cc2cccs2)cc1` (centres undefined), the cytotoxicity at 70.5 h is 11.8%.
For the molecule `COc1ccccc1OCCNC1CCCN(Cc2noc(C)n2)C1` (centres undefined), the cytotoxicity at 70.5 h is 31.2%.
Then `CC1CCN(S(=O)(=O)N2CCc3sccc3C2)CC1`, with 45%; and `CN1CCOC(CNC(=O)Cc2ccccc2F)C1` (centres undefined), with -8.56%.
As for `O=S(=O)(N1CCCCC1)N1CCC(Oc2cnccn2)CC1`, the cytotoxicity at 70.5 h was -2.24%.
For the molecule `CC/N=c1\nc(NCC)nc2n1C(O)(Nc1ccc(C)cc1C)CS2` (centres undefined), the cytotoxicity at 70.5 h amounted to 4.88%.
The value for `COCCN1C(=O)C[C@H]2[C@H]1CCN2C(=O)c1ccc[nH]1` was -10.2%.
Take `COCCC1(C(=O)O)CCN(c2cc(C)c3ccccc3n2)CC1`: the cytotoxicity at 70.5 h was 18.8%.
Turning to `O=C1C(Sc2cnn[nH]2)CCCN1c1ccccc1F` (centres undefined), the cytotoxicity at 70.5 h is 19%.
With `CC(=O)NCc1ccc(C(=O)N2CCCC2c2c(C)nn(C)c2C)o1` (centres undefined), the cytotoxicity at 70.5 h is -9.03%.
The value for `COC(=O)c1cccc(S(=O)(=O)NC(=O)CC2CCCC2)c1` was 22.5%; that for `CN1C(=O)[C@H]2CC[C@@H]1CN(C(=O)Nc1ccccc1C(F)(F)F)C2` was -4.06%.
